{
  "source": "patent US11542316B2",
  "about": "“S-Arrestin peptides and therapeutic uses thereof” (APITOPE INTERNATIONAL NV, priority 2017, dated 2023)",
  "note": "Ends that are not written are not given here.",
  "data": [
    {"test_system": "T cell line with MGAR APC", "assay": "Antigen Processing Independent Presentation System (APIPS) assay, fresh or fixed MGAR APC", "type": "cell-based, DR2 mice", "conditions": "DR2 T cell line, IFN-γ, 24 h", "protocol": "FIG. 4: Identification of apitopes within HIP-9FL. DR2 mice were immunized with HIP-9FL-KKK and a T cell line was established. Ten days after immunization the LN and spleens were harvested and cultured with different concentrations of peptide (0.1-1-2.5 and 5 μg/ml); 2×10^6 cells/ml APCs+1×10^6 cells/ml CD4 T cells per well. At day 7 the cells were re-stimulated with the same concentrations of peptide. On day 21 an APIPS test was done using commercial APC (MGAR). After 24 h, antigen-induced T cell activation was measured by IFN-γ ELISA and shown as OD values. The graph represents the mean of duplicate measurements±SEM. LN, lymph nodes; APC, Antigen presenting cell; APIPS, Antigen Processing Independent Presentation System.\nAntigen-specific clones or TCL were tested for their reactivity to the peptides, presented by fixed or not fixed (fresh) cells (VAVY or MGAR) (=APCs). 5×10^4 cells from the individual clones were cultured with 10 μg/ml peptide and 5×10^4 fixed or fresh APCs. In the case of TCL, 5×10^4 cells were cultured with 10 μg/ml and 25 μg/ml peptide and 2.5×10^4 fixed or fresh APCs. To fixate APCs, cells were incubated with 0.5% paraformaldehyde (Merck, Darmstadt, Germany) (pH7) for 5 min at room temperature (RT). The fixation reaction was stopped by adding 0.4M glycine (Sigma-Aldrich) and washing the cells in RPMI-10% FCS. Additionally, reactivity towards human SAg protein (QBiologicals, Eurofins Amatsigroup, Ghent, Belgium) was measured to identify cryptic epitopes. After 24 h or 48 h, antigen-induced IFN-γ or IL-2 production (respectively) was measured by ELISA (R&D Systems, Abingdon, UK).\nDR3tg or DR2tg mice were immunised subcutaneously in the base of the tail with 50 μg peptide emulsified in CFA (peptide/CFA). Ten days after immunisation, draining lymph nodes (LN) and spleens were harvested. […] At day 7, TCL cells were counted and cultured with fresh APC, peptides and IL-2, all at the same concentrations as above. […]", "values": [
      {"substance": "KKKAFVEQVANVVLKKK-NH2 [HIP-9K1-KKK, KKKAFVEQVANVVLKKK]", "behaves as apitope (response to peptide presented by fresh or fixed APC)": "behave as apitopes"}
    ]},
    {"test_system": "SAg-specific hybridoma cells / T cell line with VAVY APC", "assay": "Antigen Processing Independent Presentation System (APIPS) assay, fresh or fixed VAVY APC", "type": "cell-based, DR3 mice", "conditions": "DR3 hybridoma clone (IL-2, 48 h) or T cell line (IFN-γ, 24 h)", "in_short": "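SAg-specific hybridomas (5×10^4) or peptide-restimulated T cell lines from immunized DR3 mice were cultured with fresh or 0.5% paraformaldehyde-fixed (5 min, RT) VAVY APCs and peptide (10 or 25 μg/ml). Read-out: IL-2 ELISA at 48 h for hybridomas, IFN-γ ELISA at 24 h for T cell lines.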", "values": [
      {"substance": "LPLLANNRERRGIA-NH2 [HIP-24HM3, LPLLANNRERRGIA]", "behaves as apitope (response to peptide presented by fresh or fixed APC)": "behave as apitopes"},
      {"substance": "LTKTLTLLPLLANNRERR-NH2 [HIP-24DG, LTKTLTLLPLLANNRERR]", "behaves as apitope (response to peptide presented by fresh or fixed APC)": "behave as apitopes"},
      {"substance": "KKKVIFKKISRDKSVTIYLGKKK-NH2 [HIP-115NE3-KKK]", "behaves as apitope (response to peptide presented by fresh or fixed APC)": "behave as apitopes"},
      {"substance": "KKKLTFRRDLYFSRVQVYKKK-NH2 [HIP-17J-KKK]", "behaves as apitope (response to peptide presented by fresh or fixed APC)": "behave as apitopes"},
      {"substance": "VIFKKISRDKSVTIYLG-NH2 [HIP-115NE3, VIFKKISRDKSVTIYLG]", "behaves as apitope (response to peptide presented by fresh or fixed APC)": "behave as apitopes"}
    ]}
  ]
}
